Earlier results on 6 molecules are cited in PubChem BioAssay AID1259410 (Chemical Carcinogenesis Research Information System (CCRIS), 2018).

For this data set, the system named is rodent tumor promotion studies, tumor incidence. As to the kind of experiment: CCRIS tumor promotion studies.

Take `CC(=O)Nc1ccc2c(c1)Cc1ccccc1-2`: the outcome runs as follows: (Carcinogen: DIETHYLNITROSAMINE, 55-18-5, Doses [Carcinogen]: 50 MG/KG ONCE 24 HR AFTER 2/3 PARTIAL HEPATECTOMY, Doses [Promoter]: 0, 0.02% IN DIET FOR 1 MO BEGINNING 1 WK POST CARCINOGEN DOSE (STUDY DURATION: 8 MO), Route [Carcinogen]: INTRAPERITONEAL, Route [Promoter]: ORAL, Species: RAT, Strain/Sex: WISTAR/MALE) “liver: carcinoma”; (Carcinogen: DIETHYLNITROSAMINE, 55-18-5, Doses [Carcinogen]: 200 MG/KG BW IN 0.9% SALINE ONCE, Doses [Promoter]: 0, 0.05 MMOL/KG BW IN POLYETHYLENE GLYCOL FOR 5 D BEGINNING 1 WK POST CARCINOGEN DOSE, 70% PARTIAL HEPATECTOMY PERFORMED, Route [Carcinogen]: INTRAPERITONEAL, Route [Promoter]: GAVAGE, Species: RAT, Strain/Sex: SPRAGUE-DAWLEY/MALE) “liver: hepatocellular carcinoma”.

`CCOC(=O)C(C)(C)Oc1ccc(Cl)cc1`: the outcome is, setting by setting: (Carcinogen: DIETHYLNITROSAMINE [55-18-5], Doses [Carcinogen]: 200 MG/KG BW ONCE (STUDY DURATION: 24 WK), Doses [Promoter]: 0, 3000 PPM IN DIET FOR 22 WK BEGINNING 2 WK POST CARCINOGEN DOSE AND 1 WK PRIOR TO 2/3 PARTIAL HEPATECTOMY (STUDY DURAT, Route [Carcinogen]: INTRAPERITONEAL, Route [Promoter]: ORAL, Species: RAT, Strain/Sex: F344/MALE) “liver: hepatocellular adenoma”; (Carcinogen: DIETHYLNITROSAMINE [55-18-5], Doses [Carcinogen]: 200 MG/KG BW ONCE (STUDY DURATION: 48 WK), Doses [Promoter]: 0, 3000 PPM IN DIET FOR 46 WK BEGINNING 2 WK POST CARCINOGEN DOSE AND 1 WK PRIOR TO 2/3 PARTIAL HEPATECTOMY (STUDY DURAT, Route [Carcinogen]: INTRAPERITONEAL, Route [Promoter]: ORAL, Species: RAT, Strain/Sex: F344/MALE) “liver: hepatocellular adenoma”; (Carcinogen: DIETHYLNITROSAMINE [55-18-5], Doses [Carcinogen]: 200 MG/KG BW ONCE (STUDY DURATION: 52 WK), Doses [Promoter]: 0, 3000 PPM IN DIET FOR 46 WK BEGINNING 2 WK POST CARCINOGEN DOSE AND 1 WK PRIOR TO 2/3 PARTIAL HEPATECTOMY (STUDY DURAT, Route [Carcinogen]: INTRAPERITONEAL, Route [Promoter]: ORAL, Species: RAT, Strain/Sex: F344/MALE) “liver: hepatocellular adenoma”; (Carcinogen: DIETHYLNITROSAMINE, 55-18-5, Doses [Carcinogen]: 10 MG/KG IN SALINE ONCE 24 HR AFTER RECEIVING 70% PARTIAL HEPATECTOMIES, Doses [Promoter]: 0, 0.01% IN DIET FOR DURATION OF STUDY BEGINNING 2 WK POST CARCINOGEN DOSE (STUDY DURATION: 18 MO), Route [Carcinogen]: GAVAGE, Route [Promoter]: ORAL, Species: RAT, Strain/Sex: SPRAGUE-DAWLEY/FEMALE) “liver: hepatocellular carcinoma”; (Carcinogen: DIETHYLNITROSAMINE, 55-18-5, Doses [Carcinogen]: 100 PPM IN DRINKING WATER FOR 2 WK, Doses [Promoter]: 0, 0.5% IN DIET BEGINNING 1 WK POST LAST CARCINOGEN DOSE AND CONTINUING FOR DURATION OF STUDY (STUDY DURATION: 32 WK), Route [Carcinogen]: ORAL, Route [Promoter]: ORAL, Species: RAT, Strain/Sex: WISTAR/MALE) “liver: hepatocellular carcinoma”; (Carcinogen: DIETHYLNITROSAMINE, 55-18-5, Doses [Carcinogen]: 150 MG/KG BW ONCE, Doses [Promoter]: 0, 0.1% IN DIET FOR 37 WK BEGINNING 2 WK POST CARCINOGEN TREATMENT (STUDY DURATION: 39 WK), Route [Carcinogen]: INTRAPERITONEAL, Route [Promoter]: ORAL, Species: RAT, Strain/Sex: F344/MALE) “liver: adenoma”.

For `CNC(=O)Oc1ccccc1OC(C)C`, the outcome runs as follows: (Carcinogen: 7,12-DIMETHYLBENZ[A]ANTHRACENE, 57-97-6, Doses [Carcinogen]: 52 UG IN 100 µL ACETONE ONCE, Doses [Promoter]: 0, 100 MG/KG BW IN 100 µL ACETONE 3/WK FOR 51 WK BEGINNING 1/WK POST CARCINOGEN DOSE (STUDY DURATION: 52 WK), Route [Carcinogen]: DERMAL, Route [Promoter]: DERMAL, Species: MOUSE, Strain/Sex: SWISS/FEMALE) “skin: tumor”; (Carcinogen: 7,12-DIMETHYLBENZ[A]ANTHRACENE, 57-97-6, Doses [Carcinogen]: 52 UG IN 100 µL ACETONE ONCE, Doses [Promoter]: 0, 100 MG/KG BW IN 100 µL ACETONE 3/WK FOR 51 WK BEGINNING 1 WK POST CARCINOGEN DOSE (STUDY DURATION: 52 WK), Route [Carcinogen]: DERMAL, Route [Promoter]: DERMAL, Species: MOUSE, Strain/Sex: SWISS/MALE) “skin: tumor”.

As to `O=C(O)C(Cl)Cl`, the outcome is “liver: adenoma” (Carcinogen: N-METHYL-N-NITROSOUREA, 684-93-5, Doses [Carcinogen]: 25 MG/KG IN STERILE SALINE ONCE, Doses [Promoter]: 0, 25 MMOL/L IN DRINKING WATER FOR 44 WK BEGINNING 2 WK POST CARCINOGEN DOSE (STUDY DURATION: 46 WK), Route [Carcinogen]: INTRAPERITONEAL, Route [Promoter]: ORAL, Species: MOUSE, Strain/Sex: B6C3F1/FEMALE); “liver: adenoma” (Carcinogen: N-METHYL-N-NITROSOUREA, 684-93-5, Doses [Carcinogen]: 25 MG/KG ONCE AT 15 D OF AGE, Doses [Promoter]: 0, 20 NMOL/L IN DRINKING WATER FOR 31 WK BEGINNING AT 7 WK OF AGE (STUDY DURATION: 31 WK), Route [Carcinogen]: INTRAPERITONEAL, Route [Promoter]: ORAL, Species: MOUSE, Strain/Sex: B6C3F1/FEMALE); “liver: adenoma” (Carcinogen: N-METHYL-N-NITROSOUREA, 684-93-5, Doses [Carcinogen]: 25 MG/KG ONCE AT 15 D OF AGE, Doses [Promoter]: 0, 20 NMOL/L IN DRINKING WATER FOR 52 WK BEGINNING AT 7 WK OF AGE (STUDY DURATION: 52 WK), Route [Carcinogen]: INTRAPERITONEAL, Route [Promoter]: ORAL, Species: MOUSE, Strain/Sex: B6C3F1/FEMALE).

With `Oc1ccc(/C=C/c2cc(O)cc(O)c2)cc1`, the outcome (Carcinogen: N-METHYL-N-NITROSOUREA, 684-93-5, Doses [Carcinogen]: 50 MG/KG ONCE AT 7 WK OF AGE, Doses [Promoter]: 100 MG/KG DAILY FOR 5 D AT 2 WK OF AGE (STUDY DURATION: 37 WK), Route [Carcinogen]: INTRAPERITONEAL, Route [Promoter]: SUBCUTANEOUS, Species: RAT, Strain/Sex: SPRAGUE-DAWLEY/FEMALE) was “mammary gland: adenocarcinoma”.

Regarding `CC1=C[C@H]2[C@@]3(O)[C@H](C)[C@@H](O)[C@]4(O)[C@H]([C@@H]3C=C(CO)C[C@]2(O)C1=O)C4(C)C`, the outcome runs as follows: (Carcinogen: 2-(ACETYLAMINO)FLUORINE, Doses [Carcinogen]: TRANS-PLACENTAL, Route [Carcinogen]: TRANS-PLACENTAL, Route [Promoter]: INTRAPERITONEAL, Species: MOUSE, Strain/Sex: C57BL/MALE,FEMALE) “liver”; (Carcinogen: 7,12-DIMETHYLBENZ(A)ANTHRACENE, Doses [Carcinogen]: IG, Route [Carcinogen]: GAVAGE, Route [Promoter]: INTRAPERITONEAL, Species: RAT, Strain/Sex: FEMALE) “mammary glands; hematopoietic system (leukemia, thymic)”; (Carcinogen: 7,12-DIMETHYLBENZ(A)ANTHRACENE, Doses [Carcinogen]: TOP, Route [Carcinogen]: DERMAL, Route [Promoter]: INTRAPERITONEAL, Species: MOUSE, Strain/Sex: FEMALE) “hematopoietic system (leukemia, nonthymic)”; (Carcinogen: DIMETHYLNITROSAMINE, Doses [Carcinogen]: SC, Route [Carcinogen]: SUBCUTANEOUS, Route [Promoter]: INTRAPERITONEAL, Species: MOUSE, Strain/Sex: MALE,FEMALE) “lung; liver”.
